Legend:
rat hepatocyte cells = experiment: MTT cell viability assay; type: cell-based; conditions: 50 μM Cd^2+, after ~10 h
hepatocytes [1] = conditions: Cd^2+ in the 50-400 μM range; cited from earlier work
hepatocytes [2] = experiment: Reflectance microscopy of non-incubated hepatocytes on porous Si photonic crystal; type: cell-based, rat; conditions: 200 μM Cd^2+, eighty-five min after introduction, cells not incubated
Procedure: More particularly, measurement of light scattered from a monolayer of hepatocyte cells on a porous Si photonic crystal is used to measure changes in cellular morphology. Data were collected after hepatocytes were administered a toxic dose of aqueous cadmium chloride (200 μM). […] Upon exposure to Cd^2+, characteristic changes in morphology that accompany loss of viability, such as blebbing and increased granularity, are observed (FIG. 9b). The optical setup produces more dramatic images upon exposure to a toxic dose of Cd^2+. In this arrangement, cells appear with a color characteristic of the underlying photonic crystal, while the regions that are not covered with cells appear darker (FIG. 5a). After loss of viability, the cytoplasm appears brighter, leading to greater nuclear and cell boundary contrast (FIG. 5b).
Optical measurements. […] Images were processed on Metamorph and JImage. […] Pictures were obtained at time 0 and 85 minutes.

primary rat hepatocytes [3] = experiment: Light scattering from hepatocytes seeded on a porous Si photonic crystal (CCD spectrometer, in incubator); type: cell-based; conditions: 50 μM Cd^2+
Procedure: Hepatocytes were isolated from 2-3 month old adult female Lewis rats by collagenase perfusion as previously described. Hepatocytes were then seeded on the polystyrene-coated porous silicon samples or on tissue-culture polystyrene dishes.
Hepatocytes were then seeded on the activated polystyrene-coated chip.
Cell seeding. Porous Si photonic crystal samples were sterilized in a 35 mm dish with 2 mL of 100% ethanol for 1 hour. Ethanol was removed and the samples were allowed to dry in a sterile laminar-flow hood. The samples and dish were washed twice with sterile water. To improve adhesion, 2 mL of a 0.1 mg/mL solution of rat-tail collagen (collagen I) was added to the dish, and the samples were incubated at 37° C. for one h. The collagen-coated samples were then washed once with sterile water, and once with growth media. Media for all experiments was DMEM with high glucose (Invitrogen), 10% fetal bovine serum, supplemented with 0.5 U/mL insulin, 7 ng/mL glucagon, 7.5 mg/mL hydrocortisone, 10 U/mL penicillin, and 10 mg/mL streptomycin. Hepatocytes were isolated from 2-3 month old adult female Lewis rats by collagenase perfusion as previously described. Less than one hour after isolation, 1.25×10^6 cells per dish were seeded in 2 mL of media for scattering experiments and 6×10^5 cells per dish for microscope experiments. As the porous Si samples were smaller than the dish, some cells settled and attached to the polystyrene surface. Unattached cells were removed after one hour and dishes were incubated at 37° C., 5% CO2 for 24 hours to allow spreading before the start of observation.
Reflectance spectra were collected using an Ocean Optics S-2000 CCD spectrometer fitted with a microscope objective lens coupled to either a bifurcated fiber optic cable (for specular measurements) or a single fiber optic cable (for scattering measurements). […]

primary rat hepatocytes [4] = experiment: Phase-contrast microscopy of hepatocytes on tissue-culture polystyrene plates; conditions: 50 μM Cd^2+
Procedure: Optical measurements. Images for cells seeded on porous silicon photonic crystals were collected using a reflectance microscope and a 10× LWD objective with on-normal and off-normal illumination using a white light source. Phase contrast images for cells seeded on tissue cultured polystyrene multi-well plates were obtained on a Nikon TE200 microscope with a 10× objective and captured with a camera. Images were processed on Metamorph and JImage. […] Cells were seeded on the porous Si chips at less than 100% coverage so that the porous silicon background could provide contrast. In order to follow the same subset of cells throughout the course of morphology changes for the Cd^2+ toxicity studies, the cells were not incubated while monitoring with the microscope. Rather, cells were placed on a chip and Cd^2+ concentration was adjusted to a final concentration of 200 μM. Pictures were obtained at time 0 and 85 minutes.

Structure (SMILES): [Cl][Cd][Cl] [Cd^2+, cadmium chloride]
- viability according to MTT stain, % of the initial value (rat hepatocyte cells): ~50%
- time of cell damage (decrease in membrane and metabolic integrity) (hepatocytes [1]): within the first hour of exposure
- hepatocytes that have lost viability (hepatocytes [2]): > 90%
- time after which intensity of scattered light reaches a constant value (primary rat hepatocytes [3]): ~10 h
- time after which relative scattered intensity shows a significant increase (primary rat hepatocytes [3]): ~2 h
- time by which scattering changes precede first loss of viability in MTT stain (primary rat hepatocytes [3]): ~2 h
- hepatocyte morphology by phase contrast (primary rat hepatocytes [4]): granular appearance increases substantially, even after 2 h
- time by which most cellular features become indistinguishable (primary rat hepatocytes [4]): ≤ 14 h
